Experimental data: patent US7390903B2, “Thieno-pyridine derivatives as allosteric enhancers of the GABAB receptors” (Hoffmann-La Roche Inc., priority 2004, dated 2008)

Legend:
[1] = small group of veterans with chronic, combat-related PTSD; cited from earlier work
[2] = PO, cited from earlier work
[3] = rat; cited from earlier work
[4] = panic disorder patients; Hamilton, Zung anxiety scales, Katz-R nervousness subscale; cited from earlier work
GABABR1R2 = GABABR1R2 (Homo sapiens, UniProt O75899+Q9UBS5); conditions: cited from earlier work; for effect on their own at GABAB receptors: absence of GABA; for effect on potency and maximal efficacy of GABA: in concert with endogenous GABA, GABABR1R2
[5] = rats; cited from earlier work
[6] = preclinical; cited from earlier work
human GABABR1aR2a = biological target: T1, human GABABR1aR2a (Homo sapiens, UniProt O75899+Q9UBS5); test: Intracellular Ca2+ mobilization assay in CHO-GABABR1aR2a-Gα16 cell (FLIPR); format: cell-based; conditions: for GABA shift Log [EC50(GABA + 10 μM cp)/EC50(GABA alone)]: GABA 0.0003-30 μM in absence and presence of 10 μM enhancer; for Emax: enhancer 0.001-30 μM in the presence of 10 nM GABA (EC10), enhancer applied 15 min before GABA, read-out: Emax (%) at 10 nM GABA alone = 0% 10 μM GABA alone = 100%; for EC50: enhancer concentration-response (0.001-30 μM) in the presence of 10 nM GABA
T1 construct: expressed in transfected cells
Method: Intracellular Ca^2+ Mobilization Assay
The Chinese Hamster Ovary (CHO) cells stably expressing human GABABR1aR2a and Gα16 were seeded at 5×10^4 cells/well in the poly-D-lysine treated, 96-well, black/clear-bottomed plates (BD Biosciences, Palo Alto, Calif.). 24 h later, the cells were loaded for 90 min at 37° C. with 4 μM Flou-4 acetoxymethyl ester (Catalog No. F-14202, Molecular Probes, Eugene, Oreg.) in loading buffer (1×HBSS, 20 mM HEPES, 2.5 mM Probenecid). Hanks' Balanced Salt Solution (HBSS) (10×) (catalog No. 14065-049) and HEPES (1M) (catalog No. 15630-056) were purchased from Invitrogen, Carlsbad, Calif. Probenecid (250 mM) (catalog No. P8761) was from Sigma, Buchs, Switzerland. The cells were washed five times with loading buffer to remove excess dye and intracellular calcium mobilization, [Ca^2+]i were measured using a Fluorometric Imaging Plate Reader (FLIPR, Molecular Devices, Menlo Park, Calif.) as described previously (Porter et al., Br. J. Pharmacol., 128, 13-20, 1999). The enhancers were applied 15 min before the application of the GABA. For GABA shift assay, concentration-response curves of GABA (0.0003-30 μM) were determined in the absence and presence of 10 μM enhancer. The GABA-shift is defined as Log [EC50 (GABA+10 μM enhancer)/EC50 (GABA alone)]. The % maximum enhancing effect (% Emax) and potency (EC50 value) of each enhancer was determined from concentration-response curve of the enhancer (0.001-30 μM) in the presence of 10 nM GABA (EC10). Responses were measured as peak increase in fluorescence minus basal, normalized to the maximal stimulatory effect induced by 10 μM GABA alone (considered 100%) and 10 nM GABA alone (considered 0%). The data were fitted with the equation Y=100+(Max−100)/(1+(EC50/[drug])^n) where Max is the maximum effect, EC50 the concentration eliciting a half-maximum effect and n the Hill slope.

[7] = passive avoidance behavioral test in mice and rats; cited from earlier work
[8] = cited from earlier work

T1 sequence (Q9UBS5 15-961 limits assumed): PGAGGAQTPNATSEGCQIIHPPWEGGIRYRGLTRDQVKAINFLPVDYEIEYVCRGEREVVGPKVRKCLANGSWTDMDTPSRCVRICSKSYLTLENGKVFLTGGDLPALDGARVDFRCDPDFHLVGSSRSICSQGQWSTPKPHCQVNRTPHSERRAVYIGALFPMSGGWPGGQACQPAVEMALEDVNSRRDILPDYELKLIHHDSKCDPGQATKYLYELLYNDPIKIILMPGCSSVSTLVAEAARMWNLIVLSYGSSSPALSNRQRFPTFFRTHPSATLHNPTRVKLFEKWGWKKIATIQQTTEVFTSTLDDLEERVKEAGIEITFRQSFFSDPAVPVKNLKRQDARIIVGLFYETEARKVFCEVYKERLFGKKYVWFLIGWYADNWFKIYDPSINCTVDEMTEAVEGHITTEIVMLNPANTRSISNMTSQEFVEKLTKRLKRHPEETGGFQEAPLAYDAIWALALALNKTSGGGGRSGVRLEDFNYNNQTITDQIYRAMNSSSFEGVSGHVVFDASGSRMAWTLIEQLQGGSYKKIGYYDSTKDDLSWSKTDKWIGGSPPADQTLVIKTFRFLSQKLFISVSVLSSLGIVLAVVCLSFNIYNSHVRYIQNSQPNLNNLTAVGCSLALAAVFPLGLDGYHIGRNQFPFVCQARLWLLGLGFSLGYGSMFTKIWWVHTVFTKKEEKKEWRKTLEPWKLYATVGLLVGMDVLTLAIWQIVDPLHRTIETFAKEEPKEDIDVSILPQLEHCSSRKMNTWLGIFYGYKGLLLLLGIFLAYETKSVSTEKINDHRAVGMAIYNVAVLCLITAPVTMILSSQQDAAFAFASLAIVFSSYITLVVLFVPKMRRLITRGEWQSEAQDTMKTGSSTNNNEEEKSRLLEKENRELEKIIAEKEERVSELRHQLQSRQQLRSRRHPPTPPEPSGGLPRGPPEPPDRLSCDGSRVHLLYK
T1 sequence (O75899 42-941): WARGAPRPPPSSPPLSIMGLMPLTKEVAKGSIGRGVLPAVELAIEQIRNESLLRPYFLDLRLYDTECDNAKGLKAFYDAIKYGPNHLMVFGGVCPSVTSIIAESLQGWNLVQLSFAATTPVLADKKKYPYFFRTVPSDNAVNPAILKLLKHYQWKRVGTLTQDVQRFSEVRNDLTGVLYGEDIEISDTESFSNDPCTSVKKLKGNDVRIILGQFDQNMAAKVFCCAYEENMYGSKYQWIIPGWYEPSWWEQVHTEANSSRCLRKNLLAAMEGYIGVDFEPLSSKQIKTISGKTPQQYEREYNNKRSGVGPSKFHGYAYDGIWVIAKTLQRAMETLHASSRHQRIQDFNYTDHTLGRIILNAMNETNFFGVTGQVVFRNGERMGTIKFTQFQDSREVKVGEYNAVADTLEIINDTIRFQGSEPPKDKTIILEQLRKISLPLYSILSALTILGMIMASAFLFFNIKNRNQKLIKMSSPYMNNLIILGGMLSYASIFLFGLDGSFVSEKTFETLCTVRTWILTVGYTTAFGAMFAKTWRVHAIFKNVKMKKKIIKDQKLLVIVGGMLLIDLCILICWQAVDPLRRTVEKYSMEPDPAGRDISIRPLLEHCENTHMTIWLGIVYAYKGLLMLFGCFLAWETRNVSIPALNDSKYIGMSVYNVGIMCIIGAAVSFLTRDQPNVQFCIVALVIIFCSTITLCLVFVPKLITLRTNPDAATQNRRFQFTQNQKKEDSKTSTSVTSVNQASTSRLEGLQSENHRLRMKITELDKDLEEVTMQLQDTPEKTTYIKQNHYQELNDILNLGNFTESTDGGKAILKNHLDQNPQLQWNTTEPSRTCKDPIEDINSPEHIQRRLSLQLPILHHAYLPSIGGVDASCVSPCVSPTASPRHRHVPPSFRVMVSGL
Sequence of GABABR1R2 (Q9UBS5 20-961): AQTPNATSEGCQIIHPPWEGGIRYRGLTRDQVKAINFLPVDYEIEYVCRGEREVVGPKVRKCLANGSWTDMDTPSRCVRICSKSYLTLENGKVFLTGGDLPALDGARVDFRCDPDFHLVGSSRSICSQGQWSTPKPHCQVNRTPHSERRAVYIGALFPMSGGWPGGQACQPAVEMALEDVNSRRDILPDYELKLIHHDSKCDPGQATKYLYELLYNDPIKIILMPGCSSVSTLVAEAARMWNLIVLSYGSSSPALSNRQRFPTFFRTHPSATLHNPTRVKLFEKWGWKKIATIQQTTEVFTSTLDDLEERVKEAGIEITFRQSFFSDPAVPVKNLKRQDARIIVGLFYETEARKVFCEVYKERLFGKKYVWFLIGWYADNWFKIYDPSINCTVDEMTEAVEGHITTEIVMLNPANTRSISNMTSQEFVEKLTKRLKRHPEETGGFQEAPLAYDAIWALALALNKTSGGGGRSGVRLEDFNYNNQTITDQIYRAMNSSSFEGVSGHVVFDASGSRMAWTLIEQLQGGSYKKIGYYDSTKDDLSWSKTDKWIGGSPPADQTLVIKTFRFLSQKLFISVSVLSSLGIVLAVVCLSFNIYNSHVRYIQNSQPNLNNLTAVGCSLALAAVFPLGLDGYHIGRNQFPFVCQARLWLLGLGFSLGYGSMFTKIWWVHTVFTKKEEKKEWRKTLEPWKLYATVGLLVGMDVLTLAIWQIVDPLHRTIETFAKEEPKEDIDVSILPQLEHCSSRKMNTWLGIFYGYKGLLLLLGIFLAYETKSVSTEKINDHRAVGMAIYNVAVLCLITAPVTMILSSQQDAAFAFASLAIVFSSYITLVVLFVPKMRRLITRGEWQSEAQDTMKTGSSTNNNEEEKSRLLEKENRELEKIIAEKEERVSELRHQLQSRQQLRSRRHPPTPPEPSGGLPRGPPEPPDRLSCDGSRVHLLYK
Sequence of GABABR1R2 (O75899 42-941): as the sequence (O75899 42-941) above

| SMILES | GABA shift Log [EC50(GABA + 10 μM cp)/EC50(GABA alone)] (human GABABR1aR2a) | Emax (human GABABR1aR2a) [%] | EC50 (human GABABR1aR2a) [µM] | further results |
| --- | --- | --- | --- | --- |
| NCC(CC(=O)O)c1ccc(Cl)cc1 (stereo not drawn) [Baclofen, β-chlorophenyl GABA] |  |  |  | treatment of PTSD [1]: effective and well-tolerated treatment; side effects (spontaneous locomotor activity, rotarod, body temperature, traction test) ([2]; 2.5-15 mg/kg): showed these side effects; reversal of reduction in prepulse inhibition (PPI) induced by dizocilpine [3]: able to reverse the reduction in prepulse inhibition; number of panic attacks and symptoms of anxiety [4]: significantly effective in reducing the number of panic attacks and symptoms of anxiety |
| CC(C)(CO)Cc1cc(C(C)(C)C)c(O)c(C(C)(C)C)c1 [CGP7930, 2,6-di-tert-butyl-4-(3-hydroxy-2,2-dimethyl-propyl)-phenol] |  |  |  | effect on their own at GABAB receptors (GABABR1R2): no effect on their own; effect on potency and maximal efficacy of GABA (GABABR1R2): increase both the potency and maximal efficacy of GABA; cocaine self-administration [5]: effective at deceasing cocaine self-administration; efficacy for treatment of GERD [6]: found to be effective |
| CC(C)(C=O)Cc1cc(C(C)(C)C)c(O)c(C(C)(C)C)c1 [CGP13501] |  |  |  | effect on their own at GABAB receptors (GABABR1R2): no effect on their own; effect on potency and maximal efficacy of GABA (GABABR1R2): increase both the potency and maximal efficacy of GABA |
| Cc1nc2sc3c(c2c(-c2ccc(Cl)c(Cl)c2)c1C(=O)C(F)(F)F)CCC3 [Example 1, 1-[4-(3,4-Dichloro-phenyl)-2-methyl-6,7-dihydro-5H-cyclopenta[4,5]thieno[2,3-b]pyridin-3-yl]-2,2,2-trifluoro-ethanone] | −0.3 | 47 | 14.7 |  |
| Cc1nc2sc3c(c2c(-c2cccs2)c1C(=O)C(F)(F)F)CCC3 [Example 2, 2,2,2-Trifluoro-1-(2-methyl-4-thiophen-2-yl-6,7-dihydro-5H-cyclopenta[4,5]thieno[2,3-b]pyridin-3-yl)-ethanone] | −0.9 | 59 | 1.3 |  |
| Cc1nc2sc(C)c(C)c2c(-c2ccccc2)c1C(=O)C(F)(F)F [Example 16, 2,2,2-Trifluoro-1-(2,3,6-trimethyl-4-phenyl-thieno[2,3-b]pyridin-5-yl)-ethanone] | −0.9 | 69 | 2.4 |  |
| CC(=O)c1c(C)nc2sc3c(c2c1-c1ccco1)CCC3 [Example 18, 1-(4-Furan-2-yl-2-methyl-6,7-dihydro-5H-cyclopenta[4,5]thieno[2,3-b]pyridin-3-yl)-ethanone] | −1 | 58 | 0.86 |  |
| Cc1nc2sc(Cl)cc2c(-c2ccccc2)c1C(=O)C(F)(F)F [Example 21, 1-(2-Chloro-6-methyl-4-phenyl-thieno[2,3-b]pyridin-5-yl)-2,2,2-trifluoro-ethanone] | −1.1 | 66 | 1.9 |  |
| CC(=O)c1c(C)nc2sc3cnccc3c2c1-c1ccccc1 [Example 23, 1-(2-Methyl-4-phenyl-9-thia-1,7-diaza-fluoren-3-yl)-ethanone] | −0.6 | 35 | 1.3 |  |
| COC(=O)c1ccc(-c2c(C(=O)C3CC3)c(C)nc3sc4c(c23)CCCCC4)cc1 [Example 35, 4-(3-Cyclopropanecarbonyl-2-methyl-6,7,8,9-tetrahydro-H-10-thia-1-aza-benzo [a]azulen-4-yl)-benzoic acid methyl ester] | −0.91 | 56 | 1.2 |  |
| COC(=O)N1CCc2c(sc3nc(C)c(C(C)=O)c(-c4ccccc4)c23)C1 [Example 38, 3-Acetyl-2-methyl-4-phenyl-5,8-dihydro-6H-9-thia-1,7-diaza-fluorene-7-carboxylic acid methyl ester] | −0.3 | 20 | 1.4 |  |
| CSc1nc(NC2CCCC2)c([N+](=O)[O-])c(NC2CCCC2)n1 [GS39783, N,N_-dicyclopentyl-2-methylsulfanyl-5-nitro-pyrimidine-4,6-diamine] |  |  |  | cocaine self-administration [5]: effective at deceasing cocaine self-administration; effect on spontaneous locomotor activity, rotarod, body temperature and traction test ([2]; 0.1-200 mg/kg): had no effect; effect on cognition performance [7]: did not have any effect; tolerance after chronic treatment ([8]; 21 days, 10 mg/kg, P.O., once daily, light-dark box and elevated zero maze): No tolerance; anxiolytic-like effects ([8]; elevated plus maze (rat), elevated zero maze (mice and rats), stress-induced hyperthermia (mice)): exhibited anxiolytic-like effects |
